Results: patent publication US8071548B2, “Method of reducing injury to mammalian cells” (Nono, Inc., priority 2002, dated 2011)

Tests used:
[1] = test system: transient middle cerebral artery occlusion; test: Transient MCAO, dose study of infarct size; format: in vivo, Sprague-Dawley rats
[2] = test system: cortical neuronal cultures; test: Sublethal stretch injury with or without NMDA, cell death in cortical cultures; format: cell-based
Procedure: […]. In brief, cerebral cortices from 10 to 12 embryos were incubated for 10 min in 0.05% trypsin-EDTA, dissociated by trituration, and plated on flexible membranes coated with poly-L-ornithine in 6 well plates (Flexcell International Corporation, Hillsborough, N.C.) at a density of 3.25×10^6 cells per well. Plating medium consisted of DMEM supplemented with 10% heat-inactivated horse serum (Gibco) and (in mM) 2 glutamine, 25 glucose, and 26 bicarbonate. The cultures were maintained at 37° C. in a humidified 5% CO2 atmosphere. After 3 days in vitro, growth of non-neuronal cells was halted by a 48 h exposure to 10 μM FDU-solution (5 μM uridine, 5 μM (+)-5-fluor-2′-deoxyuridine). This produces cultures in which >85% of the cells are neurons, based on immunohistochemical staining for glial fibrillary associated protein (exclusive to astrocytes), and for the NMDAR1 subunit (not shown). The cultures were used for experiments after 12-14 days in vitro.
The cultures, grown on silastic membranes as above, were placed in the Flexercell® FX-3000™ Strain Unit (Flexcell Int., Inc.), a computer-driven instrument that uses a vacuum pulse to deform the culture substrate. In all experiments, the cortical cultures were stretched to 130% of their original length for 1 s, inducing a sublethal injury as recently characterized by us (Arundine et al., 2003). The stretched neurons maintained cell membrane integrity, viability, and electrophysiological function.
Cell death was determined by serial quantitative measurements of propidium iodide (PI) fluorescence using a multiwell plate fluorescence scanner (Cytofluor II, PerSeptive Biosytems, Framingham, Mass., USA) as described previously (Sattler et al., 1997; Sattler et al., 1998). In brief, the culture medium in each tissue culture well was replaced with control solution containing 50 μg/ml PI, and a baseline fluorescence reading was taken. Sequential readings were then taken at appropriate intervals over the 20 h observation period. The fraction of dead cells in each culture at a given time was calculated as: Fraction dead=(Ft−Fo)/FNMDA Where Ft=PI fluorescence at time t, F0=initial PI fluorescence at time zero and FNMDA=background subtracted PI fluorescence of identical cultures from the same dissection and plating, 20-24 h after a 60 min exposure to 1 mM NMDA at 37° C. Based on manual observations at the time of validation of this technique, this NMDA exposure routinely produced near complete neuronal death in each culture but had no effect on surrounding glia (also see (Bruno et al., 1994; David et al., 1996; Sattler et al., 1997)). Adding Triton X-100 (0.1%) to cultures treated in this manner produced an additional 10-15% increase in PI fluorescence due to permeabilization of non-neuronal cell membranes, consistent with a 10-15% glial component in the cultures.
All experiments were performed at 37° C. Unless otherwise indicated, all solutions contained nimodipine (2 μM) and CNQX (10 μM) to restrict the actions of applied NMDA to NMDARs by preventing the secondary activation of other pathways (Sattler et al., 1998). In general, the cultures were washed ×2 with control solution and immediately stretched to 130% of their original length for 1 s. After the stretch, they were washed ×1 with control solution alone or challenged with an additional treatment (e.g., NMDA) and placed at 37° C. for 1 h. They were then washed ×1 with control solution and then with control solution containing 50 μg/ml PI to obtain a baseline reading. In pilot studies, baseline readings obtained at this stage were similar to those obtained by staining the cells with PI prior to stretch. As the stretch causes splashing of the bath solution, staining with PI after stretch reduced biohazard potential and artifacts associated with PI outside the culture well. Unstretched controls were manipulated identically to stretched cultures.

[3] = Physiological variables in post-treatment MCAO study; format: in vivo, Sprague-Dawley rats
Procedure: Next, I examined whether treatment with Tat-NR2B9c could attenuate ischemic neuronal damage in-vivo when given after stroke onset. […] Infarction volume and neurological outcome measurements were performed at times identical to the pre-treatment study. Body temperature, blood pressure and blood gases were monitored throughout the 24 h experiment and maintained equivalent between groups (Table 2).

For Tat-KLSSIESDV [Tat-NR2B9c], the “efficacy of the lowest dose versus higher doses” value ([1]; 0.03 nmole/g, 3 h after stroke onset) was “equally effective”, the “infarct size versus control dose” value ([1]; 0.03, 0.3, 1 or 3 nmoles/g i.v. 3 h after stroke onset, measured 24 h after MCAO onset) was “significant reduction in infarct size” and the “toxic effects in control or stretched cultures” value ([2]; 50 nM) was “no toxic effects”. For the same substance, the “heightened vulnerability of stretched cultures to NMDA toxicity, pre-treatment” value ([2]; 50 nM 30 min prior to stretch, NMDA 30 μM 1 h, cell death at 20 h) was “completely abolished”, the “enhanced cell mortality in stretched neurons by NMDA challenge, post-treatment” value ([2]; 50 nM applied after terminating the 1 h NMDA challenge) was “reduced the enhanced cell mortality” and the “Body Temperature” value ([3]; After MCAo (15 min)) was 36.8 ± 0.08 °C. The MABP ([3]; After MCAo (15 min)) was 119 ± 4 mmHg, the “Body Temperature” value ([3]; After MCAo (24 hr)) was 36.4 ± 0.24 °C and the Body weight ([3]; After MCAo (24 hr)) was 279 ± 8 g. The “Blood gases PCO2” value ([3]; Before MCAo(15 min)) was 40.1 ± 1.0 mmHg, the “Blood gases PH” value ([3]; Before MCAo(15 min)) was 7.43 ± 0.02 and the “Blood gases PO2” value ([3]; Before MCAo(15 min)) was 105 ± 4 mmHg. The “Body Temperature” value ([3]; Before MCAo(15 min)) was 36.6 ± 0.07 °C, the MABP ([3]; Before MCAo(15 min)) was 103 ± 5 mmHg and the Body weight ([3]; Before anesthesia) was 306 ± 7 g. For the same substance, the “Blood gases PCO2” value ([3]; During MCAo (15 min)) was 39.8 ± 0.9 mmHg, the “Blood gases PH” value ([3]; During MCAo (15 min)) was 7.43 ± 0.01 and the “Blood gases PO2” value ([3]; During MCAo (15 min)) was 111 ± 4 mmHg. For the same substance, the “Body Temperature” value ([3]; During MCAo (15 min)) was 37.0 ± 0.07 °C, the MABP ([3]; During MCAo (15 min)) was 119 ± 8 mmHg and the “Body Temperature” value ([3]; During MCAo (60 min)) was 36.7 ± 0.11 °C. For the same substance, the MABP ([3]; During MCAo (60 min)) was 143 ± 5 mmHg, the “Body Temperature” value ([3]; During MCAo (65 min)) was 36.9 ± 0.08 °C and the MABP ([3]; During MCAo (65 min)) was 137 ± 4 mmHg.
